Laboratory results as given in patent US6586460B1, “Heteroarotinoids containing urea or thiourea linker” (The Board of Regents for Oklahoma State University, priority 2001, dated 2003).
Several values for one entry are separate records, joined by “and”; a condition that tells them apart may be missing. Identical values can stand only once.

Tests used:
SK-OV-3 = assay: Growth inhibition assay (SRB); format: cell-based; conditions: 3 days of treatment; for inhibition at 1 µM / inhibition at 10 µM: Homo sapiens, SK-OV-3, 72 h, read-out: Percentage of growth inhibition, SKOV−3
Excerpt: (§1) To illustrate the general and useful biological activity of the heteroarotinoids described in this invention, selected compounds were screened for ability to inhibit the growth of three ovarian cancerous cell lines, namely Caov, SKOV, and OVCAR cell lines, three cervical cell lines (Cervix HPV-Wt p53, Cervix HPV-Mut p53, and Cervix HPV-Mut p53), and one vulvar (Vulvar HPV-Mut p53) cell line as shown in Tables I-III. The cell lines and the technology have been previously described [See Journal of Medicinal Chemistry, 1999, Vol. 42, pages 3602-3614 in an article entitled “Synthesis, Structure-Activity Relationships, and RAR γ-Ligand Interactions of Nitrogen Heteroarotinoids” by A. Dhar, S. Liu, J. Klucik, K. D. Berlin, M. M. Madler, S. Lu, R. T. Ivey, D. Zacheis, C. W. Brown, E. C. Nelson, P. J. Birckbichler, and D. M. Benbrook], but the general technique was slightly modified. Cultures of the cancerous cells were plated in volumes of 150 μL in 96-well microtiter plates at concentrations of 2000-4000 cells/well, depending upon the cell line used. Retinoids were added the next day at 4× the concentrations in 50 μL of media resulting in 1, 2, 3, 4, 5, 7, and 10 μM final concentrations of each retinoid. Control cultures were treated with the same volume of DMSO. After 3 days of treatment, the cell density in each well was determined by fixing the cells in trichloroacetic acid followed by staining the cytoplasmic proteins with sulforhoamine B (SRB). After rinsing, the SRB was solubilized in Tris-HCl, and the optical density of each culture was determined with a MR600 microtiter plate reader. Each experiment was performed in triplicate, and the three values of each treatment were averaged. The average OD of the treated cultures was divided by that of the control cultures treated with solvent alone. To determine the percent growth inhibition, this ratio was subtracted from 1 and multiplied by 100. Tables I, II, and III contain representative examples of the inhibition of growth by the inventive heteroarotinoids of the cancerous cell lines investigated at two independent concentrations (1 and 10 μM). As standards for comparison purposes, trans-retinoic acid (t-RA), 9-cis-retinoic acid (9-c-RA), 13-cis-retinoic acid (13-c-RA), and […] (4-HPR) were added in parallel experiments along with the heteroarotinoids and with dimethyl sulfoxide (DMSO) as the solvent. For convenience, the data in Tables II and III are duplicated and ranked according to tumor type.

OVCAR-3 = assay: Growth inhibition assay (SRB); format: cell-based, human; conditions: for Percentage of growth inhibition, OVCAR−3 / inhibition at 1 µM / inhibition at 10 µM: 3 days of treatment; for inhibition at 1 µM / inhibition at 10 µM: Homo sapiens, OVCAR-3, 72 h, read-out: Percentage of growth inhibition, OVCAR−3
Excerpt: as §1

CAOV-3 = assay: Growth inhibition assay (SRB); format: cell-based; conditions: 3 days of treatment; for inhibition at 1 µM / inhibition at 10 µM: Homo sapiens, Caov-3, 72 h, read-out: Percentage of growth inhibition, CAOV−3
Excerpt: as §1

[1] = system: SW962 vulvar carcinoma cultures; assay: Apoptosis assay, Annexin-V-Flous/propidium iodide flow cytometry; format: cell-based
Excerpt: Optimal chemotherapeutic agents will selectively kill tumor cells by inducing a natural form of cell death which is called “apoptosis”. Toxic agents kill both normal and tumor cells via a nonspecific process known as “necrosis”. To differentiate between apoptosis and necrosis in heteroarotinoid-treated cultures, a flow cytometric assay was employed. Treated cultures were stained with Annexin-V-Flous and propidium iodide, and the intensities of the stains are quantitated with Flow Cytometry. The Annexin-V-Flous binds to phosphatidyl serine on the exterior of apoptosing cells. This assay is specific for apoptosing cells because phosphatidyl serine is normally located on the inner membrane of the cells, a situation whereby the serine derivative cannot be bound by Annexin. However, during apoptosis, phosphatidyl serine is translocated to the outer membrane. The Flous moiety emits a signal that can be detected and quantitated by Flow Cytometry. In contrast, propidium iodide is taken up by necrotic cells that have lost membrane integrity. In this study, t-RA was used as a control for the non-apoptotic retinoids, and 4-HPR was used as a control for the apoptotic retinoids.

Compound	Percentage of growth inhibition, SKOV−3 (SK-OV-3; 1 μM, Table II) [%]	Percentage of growth inhibition, OVCAR−3 (OVCAR-3; 1 μM, Table II) [%]	Percentage of growth inhibition, CAOV−3 (CAOV-3; 1 μM, Table II) [%]	Percentage of growth inhibition, CAOV−3 (CAOV-3; 10 μM, Table III) [%]	Percentage of growth inhibition, SKOV−3 (SK-OV-3; 10 μM, Table III) [%]	Percentage of growth inhibition, OVCAR−3 (OVCAR-3; 10 μM, Table III)	further results
13-cis-retinoic acid [13-c-RA, reference compound]	28.5	9.8					
CC1(C)CC(C)(C)c2cc(NC(=O)Nc3ccc(C(=O)O)cc3)ccc2S1 [heteroarotinoid 14]	3.58	−6.70	−4.00	6.12	0.43	5.45%	
CC1(C)CC(C)(C)c2cc(NC(=S)Nc3ccc(S(N)(=O)=O)cc3)ccc2S1 [heteroarotinoid 15]	−1.86	8.91	19.85	−9.56	9.83	40.90%	
Cc1cc2c(cc1NC(=S)Nc1ccc([N+](=O)[O-])cc1)C(C)(C)CC(C)(C)S2 [heteroarotinoid 17]	3.0	6.6			65.3	64.9%	
Cc1cc2c(cc1NC(=S)Nc1ccc(C(=O)O)cc1)C(C)(C)CC(C)(C)S2 [heteroarotinoid 18]	10.5	10.1			8.5	18.7%	
Cc1cc([N+](=O)[O-])ccc1NC(=S)Nc1cc2c(cc1C)SC(C)(C)CC2(C)C [heteroarotinoid 19]	16.3	9.6			33.3	33.2%	
Cc1cc2c(cc1NC(=S)Nc1ccc(S(N)(=O)=O)cc1)C(C)(C)CC(C)(C)S2 [heteroarotinoid 20]	14.7	10.3			12.1	47.1%	
CC1(C)CC(C)(C)c2cccc(NC(=S)Nc3ccc([N+](=O)[O-])cc3)c2S1 [heteroarotinoid 22, [(4-Nitrophenyl)amino][(2,2,4,4-tetramethyl{3H-benzo[3,4-e]thiany-8-yl})amino]methane-1-thione]	1.09	4.07	−9.97			40.13% and 40.14%	
CCOC(=O)c1ccc(NC(=S)Nc2cccc3c2SC(C)(C)CC3(C)C)cc1 [heteroarotinoid 23]	−0.79	−0.19	11.36	17.77	7.67	2.75%	
CCOC(=O)c1ccc(NC(=O)Nc2cc3c(cc2OC)C(C)(C)COC3(C)C)cc1 [heteroarotinoid 33]	1.65	8.81	3.79	40.04	15.60	52.61%	
CCCCOC(=O)c1ccc(NC(=O)Nc2cc3c(cc2OC)C(C)(C)COC3(C)C)cc1 [heteroarotinoid 34]	22.2	2.2			6.0	30.5%	
COc1cc2c(cc1NC(=S)Nc1ccc([N+](=O)[O-])cc1C)C(C)(C)OCC2(C)C [heteroarotinoid 35]	10.3	5.6			−14.3	6.1%	
CCOC(=O)c1ccc(NC(=O)Nc2c(OC)ccc3c2C(C)(C)COC3(C)C)cc1 [heteroarotinoid 38, Ethyl 4-{[N-(6-Methoxy-1,1,4,4-tetramethylisochroman-5-yl)carbamoyl]amino}benzoate]							inhibition at 1 µM (CAOV-3; 1 μM, Table II): 8.79%; inhibition at 10 µM (CAOV-3; 10 μM, Table III): -16.1%; inhibition at 1 µM (SK-OV-3; 1 μM, Table II): -2.39%; inhibition at 10 µM (SK-OV-3; 10 μM, Table III): -7.7%; inhibition at 1 µM (OVCAR-3; 1 μM, Table II): 9.48%; inhibition at 10 µM (OVCAR-3; 10 μM, Table III): 8.96%
CCCCOC(=O)c1ccc(NC(=O)Nc2c(OC)ccc3c2C(C)(C)COC3(C)C)cc1 [heteroarotinoid 40]	1.82	15.47	15.24	37.84	9.27	33.74%	inhibition of growth of the OVCAR cell line exceeding that of 4-HPR (OVCAR-3; 1 μM, Table II): more than 1200%; inhibition of growth of the OVCAR cell line exceeding that of 9-c-RA (OVCAR-3; 1 μM, Table II): about 120%; inhibition of growth of the OVCAR cell line exceeding that of 13-c-RA (OVCAR-3; 1 μM, Table II): about 40%; inhibition of growth of the OVCAR cell line exceeding that of t-RA (OVCAR-3; 1 μM, Table II): about 120%
COc1ccc2c(c1NC(=S)Nc1ccc([N+](=O)[O-])cc1)C(C)(C)COC2(C)C [heteroarotinoid 41]	−2.72	7.18	7.58	61.94	45.45	81.71%	
CCOC(=O)c1ccc(NC(=O)Nc2cc(C(C)=O)cc3c2OCCC3(C)C)cc1 [heteroarotinoid 45, Ethyl 4-{[N-(6-Acetyl-4,4-dimethylchroman-8-yl)carbamoyl]amino}benzoate]							inhibition at 1 µM (CAOV-3; 1 μM, Table II): 7.18%; inhibition at 10 µM (CAOV-3; 10 μM, Table III): 42.8%; inhibition at 1 µM (SK-OV-3; 1 μM, Table II): -4.18%; inhibition at 10 µM (SK-OV-3; 10 μM, Table III): 20%; inhibition at 1 µM (OVCAR-3; 1 μM, Table II): 9.2%; inhibition at 10 µM (OVCAR-3; 10 μM, Table III): 47.2%
CC(=O)c1cc(NC(=S)Nc2ccc([N+](=O)[O-])cc2)c2c(c1)C(C)(C)CCO2 [heteroarotinoid 46]	−1.53	8.57	3.85	−5.35	0.25	43.15%	
trans-retinoic acid [t-RA, reference compound]	8.8	6.0			6.0	−3.0% and 3.0%	Percentage of induction of apoptosis in SW962 vulvar carcinoma cultures ([1]; Days 0): 3%; Percentage of induction of apoptosis in SW962 vulvar carcinoma cultures ([1]; Days 1): 2.53%; Percentage of induction of apoptosis in SW962 vulvar carcinoma cultures ([1]; Days 3): 1.25%; Percentage of induction of apoptosis in SW962 vulvar carcinoma cultures ([1]; Days 4): 4.5%; Percentage of induction of apoptosis in SW962 vulvar carcinoma cultures ([1]; Days 7): 3.51%
